# From patent US11980689B2 (AVALYN PHARMA INC., priority 2013, dated 2024)
# “Also recorded” adds a separate entry of the source.
# Columns and labels:
# JAK2V617F = JAK2V617F (Homo sapiens, UniProt O60674, V617F); conditions: cited from earlier work
# CYP3A4 = CYP3A4 (Homo sapiens, UniProt P08684); conditions: cited from earlier work
# lung cancer = conditions: cited from earlier work
# PI3K = conditions: cited from earlier work
# mTOR = mTOR (Homo sapiens, UniProt P42345); conditions: cited from earlier work
# [1] = single- and repeat-dosing; cited from earlier work
# breast cancer stem cells = conditions: mouse, in vivo; cited from earlier work
# p110-γ and p110-δ = conditions: cited from earlier work
# p110a = p110a (Homo sapiens, UniProt P42336); conditions: cited from earlier work
# [2] = system: bleomycin-induced pulmonary fibrosis; conditions: cited from earlier work
# [3] = target: epidermal growth factor (EGF) receptor intracellular domain (Homo sapiens, UniProt P00533); conditions: purified enzymes; cited from earlier work
# Sequence of epidermal growth factor (EGF) receptor intracellular domain (P00533 669-1210 limits assumed): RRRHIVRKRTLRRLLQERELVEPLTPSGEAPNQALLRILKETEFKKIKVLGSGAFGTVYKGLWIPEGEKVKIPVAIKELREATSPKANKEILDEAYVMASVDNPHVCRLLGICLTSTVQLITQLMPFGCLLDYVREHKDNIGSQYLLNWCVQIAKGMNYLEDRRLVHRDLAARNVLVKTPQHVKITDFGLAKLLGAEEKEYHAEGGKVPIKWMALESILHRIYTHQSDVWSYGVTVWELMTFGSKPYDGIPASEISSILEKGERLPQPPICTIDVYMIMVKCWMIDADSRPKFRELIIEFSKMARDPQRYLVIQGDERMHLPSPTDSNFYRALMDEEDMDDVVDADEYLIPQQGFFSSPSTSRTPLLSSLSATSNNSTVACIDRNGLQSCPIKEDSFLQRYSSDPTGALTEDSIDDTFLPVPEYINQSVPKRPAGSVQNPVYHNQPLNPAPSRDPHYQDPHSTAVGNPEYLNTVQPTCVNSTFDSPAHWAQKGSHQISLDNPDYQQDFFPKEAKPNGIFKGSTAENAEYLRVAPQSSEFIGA
# IPF = conditions: cited from earlier work
# fibrosis = conditions: rat, in vivo; cited from earlier work
# kit in H526 cells = kit in H526 cells (Homo sapiens, UniProt P10721); conditions: pretreatment of H526 cells; cited from earlier work
# [4] = system: Alpha-1 glycoprotein (AGP); conditions: cited from earlier work
# TIE-2 [TEK] = TIE-2 [TEK] (Homo sapiens, UniProt Q02763); conditions: purified enzymes; cited from earlier work
# [5] = system: A10 rat aorta smooth muscle cells; conditions: cited from earlier work
# PDGFR-β = PDGFR-β (Homo sapiens, UniProt P09619); conditions: cellular studies; cited from earlier work
# chelation of magnesium = format: physicochemical
# [6] = target: fibroblast growth factor receptor 1 (FGF-R1) (Homo sapiens, UniProt P11362); conditions: purified enzymes; cited from earlier work
# in vivo = conditions: Sprague-Dawley, rat
# TEL-PDGFRβ = target: T1, TEL-PDGFRβ (Homo sapiens, UniProt P09619); conditions: mouse, in vivo; cited from earlier work
# T1 construct: host or cells: transgenic mice; the other entry of the earlier key: ETV6 (P41212, Transcription factor ETV6)
# T1 sequence (P09619 554-1106 limits assumed): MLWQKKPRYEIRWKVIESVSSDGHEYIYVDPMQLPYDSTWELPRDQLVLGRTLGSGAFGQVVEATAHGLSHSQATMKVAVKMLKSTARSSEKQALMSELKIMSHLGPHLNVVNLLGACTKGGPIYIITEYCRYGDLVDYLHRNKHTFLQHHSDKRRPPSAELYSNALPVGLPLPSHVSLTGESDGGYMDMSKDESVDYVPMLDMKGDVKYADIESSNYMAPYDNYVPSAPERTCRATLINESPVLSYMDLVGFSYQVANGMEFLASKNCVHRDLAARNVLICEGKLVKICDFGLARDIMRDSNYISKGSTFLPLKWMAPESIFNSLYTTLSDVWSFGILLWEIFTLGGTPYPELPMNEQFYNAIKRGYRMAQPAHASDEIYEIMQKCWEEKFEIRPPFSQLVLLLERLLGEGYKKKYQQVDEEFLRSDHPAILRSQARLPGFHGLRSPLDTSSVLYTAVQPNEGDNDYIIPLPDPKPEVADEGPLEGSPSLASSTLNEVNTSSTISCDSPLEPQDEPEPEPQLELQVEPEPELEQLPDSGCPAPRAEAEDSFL
# [7] = system: radiation-induced lung fibrosis; conditions: mouse, in vivo; cited from earlier work
# liver fibrosis = conditions: cited from earlier work
# [8] = system: kidney fibrosis following diabetic challenge; conditions: oral; cited from earlier work
# [9] = Sprague-Dawley, rat, in vivo, po, 5.6 mg/kg
# cardiac fibrosis = conditions: rat, in vivo; cited from earlier work
# [10] = in vivo
# VEGF-R1 = VEGF-R1 (Homo sapiens, UniProt P17948); conditions: purified enzymes; cited from earlier work
# [11] = system: Hepatitis C viral-related liver disease; conditions: oral; cited from earlier work
# KIT receptor = conditions: cited from earlier work
# [12] = system: KIT with mutations affecting the activation loop; conditions: cited from earlier work
# c-kit = c-kit (Homo sapiens, UniProt P10721); conditions: kinase activity at 5 μM; cited from earlier work
# [13] = system: doxorubicin-induced toxicity (heart and kidney); conditions: mortality, abdominal fluid, cardiac and renal lesions; cited from earlier work
# heavy metal challenge = conditions: oral; cited from earlier work
# chelation of iron(III) = format: physicochemical
# PDGFR-α = PDGFR-α (Homo sapiens, UniProt P16234); conditions: cellular studies; cited from earlier work
# Sequence of PDGFR-α (P16234 24-1089, species assumed): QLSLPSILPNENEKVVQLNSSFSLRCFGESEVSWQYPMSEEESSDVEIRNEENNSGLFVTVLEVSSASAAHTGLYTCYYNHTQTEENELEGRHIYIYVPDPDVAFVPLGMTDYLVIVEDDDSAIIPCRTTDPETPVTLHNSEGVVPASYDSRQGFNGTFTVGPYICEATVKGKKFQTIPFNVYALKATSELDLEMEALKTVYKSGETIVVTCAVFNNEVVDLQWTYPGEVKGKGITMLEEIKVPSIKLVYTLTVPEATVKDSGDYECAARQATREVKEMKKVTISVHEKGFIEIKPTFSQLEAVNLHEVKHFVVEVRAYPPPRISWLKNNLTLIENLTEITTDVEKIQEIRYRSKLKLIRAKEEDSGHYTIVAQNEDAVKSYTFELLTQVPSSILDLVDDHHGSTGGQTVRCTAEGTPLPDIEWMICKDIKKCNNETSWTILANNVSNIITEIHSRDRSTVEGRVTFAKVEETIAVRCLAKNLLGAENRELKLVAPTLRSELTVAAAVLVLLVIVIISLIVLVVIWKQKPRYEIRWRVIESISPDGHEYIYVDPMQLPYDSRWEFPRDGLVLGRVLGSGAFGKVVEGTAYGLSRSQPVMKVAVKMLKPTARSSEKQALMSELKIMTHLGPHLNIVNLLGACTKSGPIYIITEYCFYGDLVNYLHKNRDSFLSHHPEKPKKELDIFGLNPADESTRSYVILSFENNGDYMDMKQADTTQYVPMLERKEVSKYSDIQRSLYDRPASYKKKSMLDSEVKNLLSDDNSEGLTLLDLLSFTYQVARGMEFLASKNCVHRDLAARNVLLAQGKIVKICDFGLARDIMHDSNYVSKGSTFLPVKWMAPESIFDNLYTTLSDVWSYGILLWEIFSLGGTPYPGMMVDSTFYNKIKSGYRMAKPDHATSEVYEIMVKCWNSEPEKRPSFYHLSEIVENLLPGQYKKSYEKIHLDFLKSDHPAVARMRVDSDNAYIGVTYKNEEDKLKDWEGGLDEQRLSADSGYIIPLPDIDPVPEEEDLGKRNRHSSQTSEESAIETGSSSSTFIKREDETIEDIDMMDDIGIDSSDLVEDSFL
# renal fibrosis = conditions: rat, in vivo; cited from earlier work
# VEGF-R2 = VEGF-R2 (Homo sapiens, UniProt P35968); conditions: purified enzymes; cited from earlier work
# Sequence of VEGF-R2 (P35968 20-1356, species assumed): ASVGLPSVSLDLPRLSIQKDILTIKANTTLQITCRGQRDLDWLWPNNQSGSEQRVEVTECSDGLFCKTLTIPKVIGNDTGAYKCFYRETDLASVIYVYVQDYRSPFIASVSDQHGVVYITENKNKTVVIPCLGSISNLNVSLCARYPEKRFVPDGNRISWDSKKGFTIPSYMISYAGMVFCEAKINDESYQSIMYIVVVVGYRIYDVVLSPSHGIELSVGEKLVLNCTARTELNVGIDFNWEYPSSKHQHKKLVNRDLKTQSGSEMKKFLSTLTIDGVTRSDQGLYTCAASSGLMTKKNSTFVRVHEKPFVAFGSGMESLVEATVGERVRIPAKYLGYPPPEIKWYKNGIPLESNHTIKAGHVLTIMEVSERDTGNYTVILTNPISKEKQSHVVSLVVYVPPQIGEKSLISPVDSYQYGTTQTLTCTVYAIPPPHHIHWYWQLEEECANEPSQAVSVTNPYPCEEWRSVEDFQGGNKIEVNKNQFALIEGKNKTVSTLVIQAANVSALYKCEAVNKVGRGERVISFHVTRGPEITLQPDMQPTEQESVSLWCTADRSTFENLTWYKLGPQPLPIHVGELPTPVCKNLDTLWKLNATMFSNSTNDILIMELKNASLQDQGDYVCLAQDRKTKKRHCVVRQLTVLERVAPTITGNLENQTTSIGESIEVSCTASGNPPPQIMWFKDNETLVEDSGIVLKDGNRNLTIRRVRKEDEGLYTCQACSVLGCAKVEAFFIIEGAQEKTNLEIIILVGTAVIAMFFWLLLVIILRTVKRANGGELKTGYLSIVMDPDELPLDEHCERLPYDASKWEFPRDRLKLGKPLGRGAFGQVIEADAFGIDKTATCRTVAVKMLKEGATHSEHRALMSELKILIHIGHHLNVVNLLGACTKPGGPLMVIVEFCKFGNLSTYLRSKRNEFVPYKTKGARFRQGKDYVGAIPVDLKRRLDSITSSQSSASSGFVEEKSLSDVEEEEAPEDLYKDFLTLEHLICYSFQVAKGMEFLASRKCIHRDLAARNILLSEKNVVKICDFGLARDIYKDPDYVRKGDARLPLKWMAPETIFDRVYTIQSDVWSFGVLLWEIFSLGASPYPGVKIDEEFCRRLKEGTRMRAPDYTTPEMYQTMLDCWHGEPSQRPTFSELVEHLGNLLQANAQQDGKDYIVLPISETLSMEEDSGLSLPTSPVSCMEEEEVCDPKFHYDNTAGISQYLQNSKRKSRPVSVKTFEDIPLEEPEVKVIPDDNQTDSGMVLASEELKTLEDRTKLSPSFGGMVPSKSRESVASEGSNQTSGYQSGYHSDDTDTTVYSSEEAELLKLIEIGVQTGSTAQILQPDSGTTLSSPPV
# CML = conditions: cited from earlier work
# [14] = system: committed progenitor cells from patients with CML; conditions: cited from earlier work
# [15] = system: dimethylnitrosamine-induced hepatic fibrosis; conditions: cited from earlier work
# c-MET = c-MET (Homo sapiens, UniProt P08581); conditions: purified enzymes; cited from earlier work
# [16] = system: KIT with mutations in the juxtamembrane domain-coding region; conditions: cited from earlier work
# Sequence of JAK2V617F (O60674 whole entry V617F): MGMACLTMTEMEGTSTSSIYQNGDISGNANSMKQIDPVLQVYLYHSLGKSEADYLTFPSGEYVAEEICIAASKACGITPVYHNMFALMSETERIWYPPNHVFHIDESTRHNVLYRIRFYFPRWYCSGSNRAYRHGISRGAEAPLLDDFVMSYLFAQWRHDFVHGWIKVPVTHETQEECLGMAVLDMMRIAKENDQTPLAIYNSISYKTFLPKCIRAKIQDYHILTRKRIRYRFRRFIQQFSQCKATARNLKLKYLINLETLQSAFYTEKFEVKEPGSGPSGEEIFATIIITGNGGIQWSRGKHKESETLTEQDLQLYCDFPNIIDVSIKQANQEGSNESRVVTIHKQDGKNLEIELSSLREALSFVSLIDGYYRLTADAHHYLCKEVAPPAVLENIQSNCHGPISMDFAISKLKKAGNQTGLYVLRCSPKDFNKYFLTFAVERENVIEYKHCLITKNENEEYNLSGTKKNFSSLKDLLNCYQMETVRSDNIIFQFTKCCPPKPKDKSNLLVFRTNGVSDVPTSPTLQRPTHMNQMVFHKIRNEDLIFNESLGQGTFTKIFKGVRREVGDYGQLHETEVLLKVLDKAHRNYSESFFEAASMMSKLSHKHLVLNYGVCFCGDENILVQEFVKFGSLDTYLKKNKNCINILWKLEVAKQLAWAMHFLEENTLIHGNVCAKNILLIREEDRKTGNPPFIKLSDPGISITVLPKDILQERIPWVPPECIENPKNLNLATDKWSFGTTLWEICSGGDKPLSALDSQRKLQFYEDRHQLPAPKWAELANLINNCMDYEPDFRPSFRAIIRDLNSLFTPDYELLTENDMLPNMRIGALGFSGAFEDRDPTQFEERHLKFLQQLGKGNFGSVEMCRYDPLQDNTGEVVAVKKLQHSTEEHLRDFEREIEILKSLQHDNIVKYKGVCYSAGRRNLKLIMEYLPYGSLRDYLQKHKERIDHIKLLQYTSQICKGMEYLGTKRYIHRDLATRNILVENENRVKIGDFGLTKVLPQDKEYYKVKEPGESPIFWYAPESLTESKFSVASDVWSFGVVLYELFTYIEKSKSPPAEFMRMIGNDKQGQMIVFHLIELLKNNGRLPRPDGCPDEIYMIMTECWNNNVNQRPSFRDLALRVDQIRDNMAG
smiles,measurement,setting,value
C#Cc1cccc(Nc2ncnc3cc(OCCOC)c(OCCOC)cc23)c1 [Erlotinib],inhibition of JAK2V617F activity,JAK2V617F,potent inhibitor
same,metabolism,CYP3A4,mainly metabolized
same,response rate,lung cancer; EGFR mutation positive patients,approximately 60%
same,time to resistance from the start of treatment,"lung cancer; human, in vivo",8-12 months
Cc1c(CN2CCN(S(C)(=O)=O)CC2)sc2c(N3CCOCC3)nc(-c3cnc(N)nc3)nc12 [GNE-477],IC50,mTOR,21 nM
O=C1NC(=O)/C(=C/c2ccc3nccc(-c4ccncc4)c3c2)S1 [GSK1059615],exposure,[1],lack of sufficient exposure
CC[C@@H](C(=O)[C@@H](C)[C@@H](O)[C@H](C)[C@@H]1O[C@@H]([C@@H](CC)C(=O)O)CC[C@@H]1C)[C@H]1O[C@]2(C=C[C@@H](O)[C@]3(CC[C@@](C)([C@H]4CC[C@](O)(CC)[C@H](C)O4)O3)O2)[C@H](C)C[C@@H]1C [Salinomycin],effectiveness relative to paclitaxel,breast cancer stem cells,at least 100 times
Nc1nc(N)c2nc(-c3cccc(O)c3)c(-c3cccc(O)c3)nc2n1 [TG100-115],better potency than against the other isoforms,p110-γ and p110-δ,5-10 fold
FC(F)c1nc2ccccc2n1-c1nc(N2CCOCC2)nc(N2CCOCC2)n1 [ZSTK474],inhibition,p110a,potent inhibitor
"Cc1ccc(NC(=O)c2ccc(CN3CCN(C)CC3)cc2)cc1Nc1nccc(-c2cccnc2)n1 [imatinib, 4-[(4-methylpiperazin-1-yl)methyl]-N-(4-methyl-3-{[4-(pyridin-3-yl)pyrimidin-2-yl]amino}phenyl)benzamide]","development of pulmonary fibrosis, early treatment",[2]; Days 0 to 15,significantly prevented
same,"development of pulmonary fibrosis, late treatment",[2]; Days 15 to 28,did not
same,development of pulmonary fibrosis,"[2]; mouse, in vivo",inhibited the development of pulmonary fibrosis
same,inhibition of EGF receptor intracellular domain,[3],did not inhibit
same,secondary outcome parameters,"IPF; DICO, change in PVC, 6-minute walk test",no benefit
same,incidence of AE-related drop-outs,IPF; dose reduction 600 mg to 400 mg daily allowed,22%
same,"primary outcome, time to disease progression",IPF; in vivo,no benefit
same,fibrosis,fibrosis,reversal of fibrosis
same,SCF-mediated kit activation,kit in H526 cells,inhibited
same,binding by AGP,[4],high affinity
same,inhibition of kinase activity,TIE-2 [TEK],weak or no inhibition
same,serum-induced growth,[5],did not affect
same,receptor inhibition,PDGFR-β,potent inhibition
same,imatinib molecules to one magnesium ion,chelation of magnesium,two
same,inhibition of kinase activity,[6],weak or no inhibition
same,AUC,"in vivo; inhaled or intranasal, 1 mg/kg",40 ng·h/mL
same,Cmax,"in vivo; inhaled or intranasal, 1 mg/kg",20 ng/mL
same,AUC,"in vivo; po, 5.6 mg/kg",4900 ng·h/mL
same,Cmax,"in vivo; po, 5.6 mg/kg",1100 ng/mL
same,survival of the animals,TEL-PDGFRβ,prolonged survival
same,tumor formation,TEL-PDGFRβ,inhibited tumor formation
same,effect on lung fibrosis,[7],antifibrotic effects
same,"inhibition of liver fibrosis, early treatment",liver fibrosis; Days 0 to 21,effective
same,"inhibition of liver fibrosis, late treatment",liver fibrosis; Days 22 to 35,not late
same,effect on fibrosis following diabetic challenge,[8],fibrosis reversal
same,Lung AUC,[9],64.1 mg·h/kg
same,Lung Cmax,[9],13.0 µg/g
same,fibrosis,cardiac fibrosis,reversed and prevented fibrosis
same,lung-surface cations,[10],depletion of essential lung-surface cations
same,inhibition of kinase activity,VEGF-R1,weak or no inhibition
same,fibrosis and quality of life,[11],decreased fibrosis and improved quality of life
same,KIT autophosphorylation,KIT receptor; cell line from a GIST patient with an activating Kit mutation,suppress
same,autophosphorylation of the KIT receptor,KIT receptor; upon binding of stem-cell factor (SCF),potently inhibited; also recorded: blocks
same,sensitivity of KIT mutants,[12],resistant
same,tyrosine phosphorylation and in vitro kinase activity of c-kit,c-kit,dose-dependent inhibition
same,severity of doxorubicin-induced toxicity,[13],reduced the severity
same,effect against heavy metal challenge,heavy metal challenge,protective effect
same,imatinib molecules per iron(III) ion,chelation of iron(III),three
same,receptor inhibition,PDGFR-α,potent inhibition
same,action in renal fibrosis,renal fibrosis,antifibrotic action
same,inhibition of kinase activity,VEGF-R2,weak or no inhibition
same,patients achieving a complete haematological response,"CML; chronic-phase CML, doses of 300 mg or higher",98%
same,maximal tolerated dose,"CML; oral 25 to 1,000 mg per day",no maximal tolerated dose was identified
same,colony formation,[14],selective inhibition
same,mRNA for type I collagen and transforming growth factor-beta in the liver,[15]; in vivo,suppressed
same,effect against hepatic fibrosis,[15]; oral,protective effect
same,hepatic hydroxyproline levels,[15]; oral,reduced
same,inhibition of kinase activity,c-MET,weak or no inhibition
same,inhibition of KIT kinase activity,[16],effective
